Source: PubChem BioAssay (NCI)
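Interpolation was linear, between the two tested concentrations surrounding the appropriate level; five concentrations were tested over 48 hours in 96-well plates. GI50 is the concentration that inhibits growth by half. The concentration for full growth arrest is given as TGI.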

How the values were obtained:
Assay in all cases: growth of human tumour cells (NCI), 48 h
786-0 renal = tested on: 786-0 renal
BT-549 breast = tested on: BT-549 breast
SNB-75 CNS = tested on: SNB-75 CNS
SR leukemia = tested on: SR leukemia
UO-31 renal = tested on: UO-31 renal
M14 melanoma = tested on: M14 melanoma
TK-10 renal = tested on: TK-10 renal
MDA-MB-435 = tested on: MDA-MB-435
SW-620 colon = tested on: SW-620 colon
MALME-3M melanoma = tested on: MALME-3M melanoma
SK-MEL-2 melanoma = tested on: SK-MEL-2 melanoma
CAKI-1 renal = tested on: CAKI-1 renal
OVCAR-8 ovarian = tested on: OVCAR-8 ovarian
COLO 205 colon = tested on: COLO 205 colon
ACHN renal = tested on: ACHN renal
HCT-15 colon = tested on: HCT-15 colon
T-47D breast = tested on: T-47D breast
A498 renal = tested on: A498 renal
NCI-H226 lung = tested on: NCI-H226 lung
NCI-H522 lung = tested on: NCI-H522 lung
K-562 leukemia = tested on: K-562 leukemia
HL-60(TB) leukemia = tested on: HL-60(TB) leukemia
SN12C renal = tested on: SN12C renal
SK-OV-3 ovarian = tested on: SK-OV-3 ovarian
OVCAR-5 ovarian = tested on: OVCAR-5 ovarian
SF-295 CNS = tested on: SF-295 CNS
HS 578T breast = tested on: HS 578T breast
SK-MEL-28 melanoma = tested on: SK-MEL-28 melanoma
HOP-62 NSCLC = tested on: HOP-62 NSCLC
SF-539 CNS = tested on: SF-539 CNS
MDA-MB-468 breast = tested on: MDA-MB-468 breast
OVCAR-4 ovarian = tested on: OVCAR-4 ovarian
HCT-116 colon = tested on: HCT-116 colon
RPMI-8226 leukemia = tested on: RPMI-8226 leukemia
MOLT-4 leukemia = tested on: MOLT-4 leukemia
MDA-MB-231 breast = tested on: MDA-MB-231 breast
DU-145 prostate = tested on: DU-145 prostate
CCRF-CEM leukemia = tested on: CCRF-CEM leukemia
MCF7 breast = tested on: MCF7 breast
SK-MEL-5 melanoma = tested on: SK-MEL-5 melanoma
NCI-H460 lung = tested on: NCI-H460 lung
RXF 393 renal = tested on: RXF 393 renal
KM12 colon = tested on: KM12 colon
SF-268 CNS = tested on: SF-268 CNS
IGROV1 ovarian = tested on: IGROV1 ovarian
PC-3 prostate = tested on: PC-3 prostate
A549 NSCLC = tested on: A549 NSCLC
OVCAR-3 ovarian = tested on: OVCAR-3 ovarian
U251 CNS = tested on: U251 CNS
UACC-62 melanoma = tested on: UACC-62 melanoma
UACC-257 melanoma = tested on: UACC-257 melanoma
HT29 colon = tested on: HT29 colon
NCI-H23 lung = tested on: NCI-H23 lung
LOX IMVI melanoma = tested on: LOX IMVI melanoma
SNB-19 CNS = tested on: SNB-19 CNS
HCC-2998 colon = tested on: HCC-2998 colon
HOP-92 NSCLC = tested on: HOP-92 NSCLC
EKVX NSCLC = tested on: EKVX NSCLC

CC(=O)Oc1ccccc1C(=O)[Se]C(=NC1CCCCC1)NC1CCCCC1
GI50 (786-0 renal): 1760 nM | TGI (786-0 renal): 3160 nM | GI50 (BT-549 breast): 1640 nM | TGI (BT-549 breast): 3070 nM | GI50 (SNB-75 CNS): 1370 nM | TGI (SNB-75 CNS): 2780 nM | GI50 (SR leukemia): 1960 nM | TGI (SR leukemia): 4710 nM | GI50 (UO-31 renal): 1620 nM | TGI (UO-31 renal): 2970 nM | GI50 (M14 melanoma): 1690 nM | TGI (M14 melanoma): 3190 nM | GI50 (TK-10 renal): 1640 nM | TGI (TK-10 renal): 3030 nM | GI50 (MDA-MB-435): 1790 nM | TGI (MDA-MB-435): 3330 nM | GI50 (SW-620 colon): 1790 nM | TGI (SW-620 colon): 3370 nM | GI50 (MALME-3M melanoma): 1730 nM | TGI (MALME-3M melanoma): 3200 nM | GI50 (SK-MEL-2 melanoma): 1640 nM | TGI (SK-MEL-2 melanoma): 3150 nM | GI50 (CAKI-1 renal): 1690 nM | TGI (CAKI-1 renal): 3110 nM | GI50 (OVCAR-8 ovarian): 1720 nM | TGI (OVCAR-8 ovarian): 3140 nM | GI50 (COLO 205 colon): 1950 nM | TGI (COLO 205 colon): 4360 nM | GI50 (ACHN renal): 1790 nM | TGI (ACHN renal): 3270 nM | GI50 (HCT-15 colon): 1780 nM | TGI (HCT-15 colon): 3560 nM | GI50 (T-47D breast): 2000 nM | TGI (T-47D breast): 5170 nM | GI50 (A498 renal): 2310 nM | TGI (A498 renal): 6730 nM | GI50 (NCI-H226 lung): 1600 nM | TGI (NCI-H226 lung): 3210 nM | GI50 (NCI-H522 lung): 1560 nM | TGI (NCI-H522 lung): 3030 nM | GI50 (K-562 leukemia): 2090 nM | TGI (K-562 leukemia): 5210 nM | GI50 (HL-60(TB) leukemia): 1950 nM | TGI (HL-60(TB) leukemia): 4710 nM | GI50 (SN12C renal): 1730 nM | TGI (SN12C renal): 3120 nM | GI50 (SK-OV-3 ovarian): 1690 nM | TGI (SK-OV-3 ovarian): 3180 nM | GI50 (OVCAR-5 ovarian): 1690 nM | TGI (OVCAR-5 ovarian): 3230 nM | GI50 (SF-295 CNS): 1610 nM | TGI (SF-295 CNS): 3160 nM | GI50 (HS 578T breast): 2050 nM | TGI (HS 578T breast): 5370 nM | GI50 (SK-MEL-28 melanoma): 1760 nM | TGI (SK-MEL-28 melanoma): 3270 nM | GI50 (HOP-62 NSCLC): 1700 nM | TGI (HOP-62 NSCLC): 3360 nM | GI50 (SF-539 CNS): 1670 nM | TGI (SF-539 CNS): 3040 nM | GI50 (MDA-MB-468 breast): 1750 nM | TGI (MDA-MB-468 breast): 3320 nM | GI50 (OVCAR-4 ovarian): 1740 nM | TGI (OVCAR-4 ovarian): 3300 nM | GI50 (HCT-116 colon): 1900 nM | TGI (HCT-116 colon): 3730 nM | GI50 (RPMI-8226 leukemia): 2160 nM | TGI (RPMI-8226 leukemia): 5390 nM | GI50 (MOLT-4 leukemia): 2390 nM | TGI (MOLT-4 leukemia): 5560 nM | GI50 (MDA-MB-231 breast): 1850 nM | TGI (MDA-MB-231 breast): 3580 nM | GI50 (DU-145 prostate): 1790 nM | TGI (DU-145 prostate): 3280 nM | GI50 (CCRF-CEM leukemia): 2030 nM | TGI (CCRF-CEM leukemia): 5050 nM | GI50 (MCF7 breast): 1820 nM | TGI (MCF7 breast): 3400 nM | GI50 (SK-MEL-5 melanoma): 1630 nM | TGI (SK-MEL-5 melanoma): 3060 nM | GI50 (NCI-H460 lung): 1980 nM | TGI (NCI-H460 lung): 4370 nM | GI50 (RXF 393 renal): 1670 nM | TGI (RXF 393 renal): 3040 nM | GI50 (KM12 colon): 1830 nM | TGI (KM12 colon): 3390 nM | GI50 (SF-268 CNS): 2330 nM | TGI (SF-268 CNS): 5680 nM | GI50 (IGROV1 ovarian): 1760 nM | TGI (IGROV1 ovarian): 3170 nM | GI50 (PC-3 prostate): 1830 nM | TGI (PC-3 prostate): 3620 nM | GI50 (A549 NSCLC): 3010 nM | TGI (A549 NSCLC): 10600 nM | GI50 (OVCAR-3 ovarian): 1840 nM | TGI (OVCAR-3 ovarian): 3390 nM | GI50 (U251 CNS): 1720 nM | TGI (U251 CNS): 3360 nM | GI50 (UACC-62 melanoma): 1670 nM | TGI (UACC-62 melanoma): 3290 nM | GI50 (UACC-257 melanoma): 1680 nM | TGI (UACC-257 melanoma): 3150 nM | GI50 (HT29 colon): 2190 nM | TGI (HT29 colon): 5480 nM | GI50 (NCI-H23 lung): 1660 nM | TGI (NCI-H23 lung): 3200 nM | GI50 (LOX IMVI melanoma): 1650 nM | TGI (LOX IMVI melanoma): 3100 nM | GI50 (SNB-19 CNS): 1670 nM | TGI (SNB-19 CNS): 3100 nM | GI50 (HCC-2998 colon): 1720 nM | TGI (HCC-2998 colon): 3120 nM | GI50 (HOP-92 NSCLC): 1810 nM | TGI (HOP-92 NSCLC): 4230 nM | GI50 (EKVX NSCLC): 1650 nM | TGI (EKVX NSCLC): 3060 nM
